The text below walks through data of patent US9850287B2, “Means and methods for breaking noncovalent binding interactions between molecules” (Het Nederlands Kanker Instituut, priority 2005, dated 2017).

The subject of experiment [1] is CD8+ lymphocytes in peripheral blood mononuclear cells of a CMV-positive donor. Type of experiment: cell-based.
The target of another experiment is T1, HLA-A2.1 (Homo sapiens, UniProt P04439, D140Y/D185E/D98H/E176V/E277Q/G131W/G231S/I119V/I121R/I166T/I218V/N151K/N90K/P208A/P217A/Q86G/Q94H/R138H/R169H).
T1 construct: made in house
It counts as binding.

As for “CMV pp65 495-503: CMV pp65 495-503 epitope peptide (NLVPMVATV; UniProt P06725 495-503, looked up, fragment)”, the “staining of CD8+ T-cells by exchange-generated MHC tetramers” value in experiment [1] was “detect CMV-specific T-cells at an equal frequency and with similar intensity as conventional CMV pp65 495-503-specific MHC tetramers”.
Consider “GP100 (614-622): HLA-A3-binding peptide, control not expected to interact with HLA-A2.1 (LIYRRRLMK)”, for which the “recovery of UV-sensitive MHC multimer upon addition of peptide” value with HLA-A2.1 was “does not lead to a substantial increase in the recovery”.
With “HY 311-319: HLA-A2.1-binding peptide (FIDSYICQV)”, in the experiment with HLA-A2.1, the “recovery of UV-sensitive MHC multimer upon addition of peptide” value is reported as “highly increased recovery”. Also, the “staining of CD8+ T-cells by exchange-generated MHC tetramers” value in experiment [1] is given as “do not show measurable binding”.
Consider MART I 26-35 (A2L mutant), for which, in experiment [1], the “staining of CD8+ T-cells by exchange-generated MHC tetramers” value is “do not show measurable binding”.
